# Biological target: T1, FSHR (Homo sapiens, UniProt P23945)
# T1 construct: expressed in transfected cells; host or cells: CHO (Cho-FSHR-LUC-1-1-43)
# T1 sequence (P23945 18-695): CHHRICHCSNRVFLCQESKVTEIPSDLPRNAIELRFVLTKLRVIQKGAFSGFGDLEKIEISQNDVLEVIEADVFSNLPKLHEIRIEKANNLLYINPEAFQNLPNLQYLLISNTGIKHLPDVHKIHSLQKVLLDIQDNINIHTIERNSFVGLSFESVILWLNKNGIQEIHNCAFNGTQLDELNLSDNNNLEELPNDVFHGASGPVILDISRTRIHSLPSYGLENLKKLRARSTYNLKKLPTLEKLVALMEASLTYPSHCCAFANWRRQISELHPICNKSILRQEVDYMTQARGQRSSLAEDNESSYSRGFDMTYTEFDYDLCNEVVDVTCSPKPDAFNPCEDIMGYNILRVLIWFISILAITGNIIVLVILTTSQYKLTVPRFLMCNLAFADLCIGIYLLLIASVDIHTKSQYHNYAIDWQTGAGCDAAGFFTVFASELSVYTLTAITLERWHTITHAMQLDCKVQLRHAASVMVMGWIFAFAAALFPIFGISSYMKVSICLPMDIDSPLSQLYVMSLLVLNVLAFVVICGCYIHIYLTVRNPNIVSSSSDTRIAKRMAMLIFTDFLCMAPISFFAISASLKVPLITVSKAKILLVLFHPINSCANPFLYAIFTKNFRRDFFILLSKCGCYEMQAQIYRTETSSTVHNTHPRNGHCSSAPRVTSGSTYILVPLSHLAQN
# Assay: EC50 of cyclic AMP production in CHO FSHR cells + EC20 FSH (Assay A)
# Format: cell-based
# Conditions: not given
# Procedure, shortened: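 Cho-FSHR-LUC cells were exposed to compound dilution series with EC20 FSH ([…]) and 200 μM IBMX for 1 h at 37° C. cAMP was read by HTRF (665/620 nm ratio). Effects are percent of the maximal FSH standard response.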
row,SMILES,EC50
1,"COc1ccc2c(c1)OCc1c(C(=O)N(C)C(C)(C)C)nn(-c3ccsc3)c1-2 [Compound 133, 7-Methoxy-1-thiophen-3-yl-1,4-dihydro-chromeno[4,3-c]pyrazole-3-carboxylic Acid tert-butyl-methyl-amide]",1 to 5 µM

# Same assay, conditions: CHO FSHR cells + EC20 FSH, cAMP HTRF; read-out: Assay A: EC50 of cyclic AMP production
row,SMILES,EC50
1,"COc1cc2c(cc1-c1ccnn1C)-c1c(c(C(=O)NC3(CO)COC3)nn1-c1ccsc1)CO2 [Compound 111, 7-Methoxy-8-(2-methyl-2H-pyrazol-3-yl)-1-thiophen-3-yl-1,4-dihydro-chromeno[4,3-c]pyrazole-3-carboxylic acid (3-hydroxymethyl-oxetan-3-yl)-amide]",0.1 to 1 µM
2,"COc1cc2c(cc1S(=O)(=O)C(C)C)-c1c(c(C(=O)N3CCOCC3(C)C)nn1-c1ccsc1)CO2 [Compound 112, (3,3-Dimethyl-morpholin-4-yl)-[7-methoxy-8-(propane-2-sulfonyl)-1-thiophen-3-yl-1,4-dihydro-chromeno[4,3-c]pyrazol-3-yl]-methanone]",1 to 5 µM
3,"COc1cc2c(cc1C=C(C)C)-c1c(c(C(=O)N3CCOCC3)nn1-c1ccsc1)CO2 [Compound 117, [7-Methoxy-8-(2-methyl-propenyl)-1-thiophen-3-yl-1,4-dihydro-chromeno[4,3-c]pyrazol-3-yl]-morpholin-4-yl-methanone]",0.1 to 1 µM
4,[2H]C([2H])([2H])N(C(=O)c1nn(-c2ccsc2)c2c1COc1cc(OC)c(-c3ccnn3C)cc1-2)C1(C)COC1 [Compound 118],< 0.1 µM
5,"COc1cc2c(cc1-c1cc(C)n(C)c1C)-c1c(c(C(=O)N3CCOCC3(C)C)nn1-c1ccsc1)CO2 [Compound 120, (3,3-Dimethyl-morpholin-4-yl)-[7-methoxy-1-thiophen-3-yl-8-(1,2,5-trimethyl-1H-pyrrol-3-yl)-1,4-dihydro-chromeno[4,3-c]pyrazol-3-yl]-methanone]",< 0.1 µM
6,"COc1cc2c(cc1-c1cn(C)nc1C)-c1c(c(C(=O)N3CCOCC3(C)C)nn1-c1ccsc1)CO2 [Compound 123, (3,3-Dimethyl-morpholin-4-yl)-[8-(1,3-dimethyl-1H-pyrazol-4-yl)-7-methoxy-1-thiophen-3-yl-1,4-dihydro-chromeno[4,3-c]pyrazol-3-yl]-methanone]",< 0.1 µM
7,"COc1cc2c(cc1-c1cnn(C)c1C)-c1c(c(C(=O)N3CCOCC3(C)C)nn1-c1ccsc1)CO2 [Compound 124, (3,3-Dimethyl-morpholin-4-yl)-[8-(1,5-dimethyl-1H-pyrazol-4-yl)-7-methoxy-1-thiophen-3-yl-1,4-dihydro-chromeno[4,3-c]pyrazol-3-yl]-methanone]",< 0.1 µM
8,"COc1cc2c(cc1S(=O)(=O)CC(C)C)-c1c(c(C(=O)N3CCOCC3(C)C)nn1-c1ccsc1)CO2 [Compound 127, (3,3-Dimethyl-morpholin-4-yl)-[7-methoxy-8-(2-methyl-propane-1-sulfonyl)-1-thiophen-3-yl-1,4-dihydro-chromeno[4,3-c]pyrazol-3-yl]-methanone]",> 5 µM
9,"COc1ccc2c(c1)OCc1c(C(=O)N3CCOCC3(C)C)nn(-c3ccsc3)c1-2 [Compound 128, (3,3-Dimethyl-morpholin-4-yl)-(7-methoxy-1-thiophen-3-yl-1,4-dihydro-chromeno[4,3-c]pyrazol-3-yl)-methanone]",> 5 µM
10,"COc1cc2c(cc1-c1cn(C)cn1)-c1c(c(C(=O)N(C)C(C)(C)C)nn1-c1ccsc1)CO2 [Compound 129, 7-Methoxy-8-(1-methyl-1H-imidazol-4-yl)-1-thiophen-3-yl-1,4-dihydro-chromeno[4,3-c]pyrazole-3-carboxylic acid tert-butyl-methyl-amide]",< 0.1 µM
11,"COc1cc2c(cc1-c1cncn1C)-c1c(c(C(=O)N(C)C(C)(C)C)nn1-c1ccsc1)CO2 [Compound 130, 7-Methoxy-8-(3-methyl-3H-imidazol-4-yl)-1-thiophen-3-yl-1,4-dihydro-chromeno[4,3-c]pyrazole-3-carboxylic acid tert-butyl-methyl-amide]",< 0.1 µM
12,"COc1cc2c(cc1C1=CCCN(C)C1)-c1c(c(C(=O)N(C)C(C)(C)C)nn1-c1ccsc1)CO2 [Compound 134, 7-Methoxy-8-(1-methyl-1,2,5,6-tetrahydro-pyridin-3-yl)-1-thiophen-3-yl-1,4-dihydro-chromeno[4,3-c]pyrazole-3-carboxylic acid tert-butyl-methyl-amide]",0.1 to 1 µM
13,"COc1cc2c(cc1-c1c[nH]nc1C)-c1c(c(C(=O)NC3CCOC3)nn1-c1ccsc1)CO2 (stereo not drawn) [Compound 135, 7-Methoxy-8-(3-methyl-1H-pyrazol-4-yl)-1-thiophen-3-yl-1,4-dihydro-chromeno[4,3-c]pyrazole-3-carboxylic acid (tetrahydro-furan-3-yl)-amide]",1 to 5 µM
14,"COc1cc2c(cc1-c1ccn(C)c1)-c1c(c(C(=O)NC3CC(O)C3)nn1-c1ccsc1)CO2 (stereo not drawn) [Compound 136, 7-Methoxy-8-(1-methyl-1H-pyrrol-3-yl)-1-thiophen-3-yl-1,4-dihydro-chromeno[4,3-c]pyrazole-3-carboxylic acid (3-hydroxy-cyclobutyl)-amide]",> 5 µM
15,"COc1cc2c(cc1-c1ccn(C)n1)-c1c(c(C(=O)NC3CC(O)C3)nn1-c1ccsc1)CO2 (stereo not drawn) [Compound 137, 7-Methoxy-8-(1-methyl-1H-pyrazol-3-yl)-1-thiophen-3-yl-1,4-dihydro-chromeno[4,3-c]pyrazole-3-carboxylic acid (3-hydroxy-cyclobutyl)-amide]",1 to 5 µM
16,"COc1cc2c(cc1-c1c[nH]nc1C)-c1c(c(C(=O)NC3CC(O)C3)nn1-c1ccsc1)CO2 (stereo not drawn) [Compound 138, 7-Methoxy-8-(3-methyl-1H-pyrazol-4-yl)-1-thiophen-3-yl-1,4-dihydro-chromeno[4,3-c]pyrazole-3-carboxylic acid (3-hydroxy-cyclobutyl)-amide]",> 5 µM
17,[2H]C([2H])([2H])N(C(=O)c1nn(-c2ccsc2)c2c1COc1cc(OC)c(-c3ccn(C)n3)cc1-2)C1CCOC1 (stereo not drawn) [Compound 140],1 to 5 µM
18,"COc1cc2c(cc1CC(C)C)-c1c(c(C(=O)NC3(CO)COC3)nn1-c1ccsc1)CO2 [Compound 141, 8-Isobutyl-7-methoxy-1-thiophen-3-yl-1,4-dihydro-chromeno[4,3-c]pyrazole-3-carboxylic acid (3-hydroxymethyl-oxetan-3-yl)-amide]",1 to 5 µM
19,[2H]C([2H])([2H])OC1CC(N(C(=O)c2nn(-c3ccsc3)c3c2COc2cc(OC)c(-c4ccn(C)c4)cc2-3)C([2H])([2H])[2H])C1 (stereo not drawn) [Compound 142],> 5 µM
20,[2H]C([2H])([2H])N(C(=O)c1nn(-c2ccsc2)c2c1COc1cc(OC)c(-c3cn(C([2H])([2H])[2H])nc3C)cc1-2)C1CCOC1 (stereo not drawn) [Compound 143],0.1 to 1 µM
21,"COc1cc2c(cc1-c1ccn(C)n1)-c1c(c(C(=O)N3CCOCC3C(F)(F)F)nn1-c1ccsc1)CO2 (stereo not drawn) [Compound 144, [7-Methoxy-8-(1-methyl-1H-pyrazol-3-yl)-1-thiophen-3-yl-1,4-dihydro-chromeno[4,3-c]pyrazol-3-yl]-(3-trifluoromethyl-morpholin-4-yl)-methanone]",< 0.1 µM
22,"COc1cc2c(cc1CC(C)C)-c1c(c(C(=O)NC3(C)COC3)nn1-c1ccsc1)CO2 [Compound 145, 8-Isobutyl-7-methoxy-1-thiophen-3-yl-1,4-dihydro-chromeno[4,3-c]pyrazole-3-carboxylic acid (3-methyl-oxetan-3-yl)-amide]",0.1 to 1 µM
23,"CCOCn1cc(-c2cc3c(cc2OC)OCc2c(C(=O)N(C)C(C)(C)C)nn(-c4ccsc4)c2-3)nn1 [Compound 152, 8-(1-Ethoxymethyl-1H-[1,2,3]triazol-4-yl)-7-methoxy-1-thiophen-3-yl-1,4-dihydro-chromeno[4,3-c]pyrazole-3-carboxylic acid tert-butyl-methyl-amide]",< 0.1 µM
24,"COc1cc2c(cc1-c1ccn(C)c1)-c1c(c(C(=O)N3CCN(C(C)=O)CC3)nn1-c1ccsc1)CO2 [Compound 155, 1-{4-[7-Methoxy-8-(1-methyl-1H-pyrrol-3-yl)-1-thiophen-3-yl-1,4-dihydro-chromeno[4,3-c]pyrazole-3-carbonyl]-piperazin-1-yl}-ethanone]",> 5 µM
25,"COc1cc2c(cc1-c1ccn(C)n1)-c1c(c(C(=O)N3CCN(C(=O)OC(C)(C)C)CC3(C)C)nn1-c1ccsc1)CO2 [Compound 156, 4-[7-Methoxy-8-(1-methyl-1H-pyrazol-3-yl)-1-thiophen-3-yl-1,4-dihydro-chromeno[4,3-c]pyrazole-3-carbonyl]-3,3-dimethyl-piperazine-1-carboxylic acid tert-butyl ester]",0.1 to 1 µM
26,"COc1cc2c(cc1-c1ccn(C)n1)-c1c(c(C(=O)N3CCN(C(=O)OC(C)(C)C)CC34CC4)nn1-c1ccsc1)CO2 [Compound 158, 4-[7-Methoxy-8-(1-methyl-1H-pyrazol-3-yl)-1-thiophen-3-yl-1,4-dihydro-chromeno[4,3-c]pyrazole-3-carbonyl]-4,7-diaza-spiro[2.5]octane-7-carboxylic acid tert-butyl ester]",1 to 5 µM
